Data published in ChEMBL document CHEMBL1139443, “Antitumor agents. Part 230: C4'-esters of GL-331 as cytotoxic agents and DNA topoisomerase II inhibitors” (Bioorg Med Chem Lett, 2004).

Tests used:
[1] = Lethal dose against KB-7d cells when treated for 30 min; format: toxicity, cell-based; conditions: human, read-out: LD50
KB [2] = assay: Compound was evaluated for cytotoxicity against KB-7d cells at 10 uM concentration; format: functional; conditions: Homo sapiens
KB [3] = assay: Effective dose required for inhibition of KB-7d cell replication after 3 days of continuous treatment; format: functional; conditions: Homo sapiens, 72 h, read-out: ED50 (the source's name)
KB [4] = assay: Compound was evaluated for cytotoxicity against KB cells at 10 uM concentration; format: functional; conditions: Homo sapiens
[5] = Lethal dose against KB cells when treated for 30 min; format: toxicity, cell-based; conditions: human, read-out: LD50
KB [6] = assay: Lethal dose against KB-7d cells when treated for 30 min; NMD = not markedly different from control.; format: toxicity, cell-based; conditions: human, 0.5 h
KB [7] = assay: Compound was evaluated for cytotoxicity against KB-7d cells at 10 uM concentration; NMD = not markedly different from control.; format: functional, cell-based; conditions: Homo sapiens

With `COc1cc([C@@H]2c3cc4c(cc3[C@@H](Nc3ccc([N+](=O)[O-])cc3)[C@H]3COC(=O)[C@H]23)OCO4)cc(OC)c1O` the CC50 at 0.5 h [1] was < 10 µM, the cytotoxicity at 10 µM (KB [2]) was 94% and the EC50 (KB [3]) was 1.5 µM. For the same compound, the cytotoxicity at 10 µM (KB [4]) was 66% and the CC50 at 0.5 h [5] was < 10 µM.
With `COc1cc([C@@H]2c3cc4c(cc3[C@@H](O[C@@H]3O[C@@H]5CO[C@@H](C)O[C@H]5[C@H](O)[C@H]3O)[C@H]3COC(=O)[C@H]23)OCO4)cc(OC)c1O` [ETOPOSIDE] the LD50 (KB [6]) was “Not Markedly Different”, the Cytotoxicity (KB [7]) was “Not Markedly Different” and the EC50 (KB [3]) was 11 µM. The cytotoxicity at 10 µM (KB [4]) was 52% and the CC50 at 0.5 h [5] was 50 µM.
For `COc1cc([C@@H]2c3cc4c(cc3[C@@H](Nc3ccc([N+](=O)[O-])cc3)[C@H]3COC(=O)[C@H]23)OCO4)cc(OC)c1OC(=O)C(F)(F)F`, the CC50 at 0.5 h [1] was < 10 µM, the cytotoxicity at 10 µM (KB [2]) was 90% and the EC50 (KB [3]) was 1.5 µM. The cytotoxicity at 10 µM (KB [4]) was 62% and the CC50 at 0.5 h [5] was < 10 µM.
In the case of `COc1cc([C@@H]2c3cc4c(cc3[C@@H](Nc3ccc([N+](=O)[O-])cc3)[C@H]3COC(=O)[C@H]23)OCO4)cc(OC)c1OC(C)=O`, the CC50 at 0.5 h [1] is reported as < 10 µM, the cytotoxicity at 10 µM (KB [2]) is reported as 60% and the EC50 (KB [3]) is reported as 2.9 µM. The cytotoxicity at 10 µM (KB [4]) was 28% and the CC50 at 0.5 h [5] was > 20 µM.
In the case of `COc1cc([C@@H]2c3cc4c(cc3[C@@H](Nc3ccc([N+](=O)[O-])cc3)[C@H]3COC(=O)[C@H]23)OCO4)cc(OC)c1OC(=O)CCl`, the CC50 at 0.5 h [1] is reported as > 10 µM, the cytotoxicity at 10 µM (KB [2]) is reported as 46% and the EC50 (KB [3]) is reported as 2.3 µM. The cytotoxicity at 10 µM (KB [4]) was 43% and the CC50 at 0.5 h [5] was > 10 µM.
